# From publication PMC7531004, “Discovery of gramicidin A analogues with altered activities by multidimensional screening of a one-bead-one-compound library” (Nature Communications, 2020)
# Where a SMILES comes first, the peptide text is derived from it. [ ]: non-standard residue; d: D form. The star is where a group is joined. NHCH2CH2OH = OCCN*; For = O=C*
# How the values were obtained:
# [1] = system: Streptococcus pyogenes SSI-9; assay: Antibacterial activity assay of bead-derived peptides (three concentrations); type: cell-based; parameters: key: +++: inhibition by the 640-fold diluted peptide solution; ++: inhibition by the 160-fold diluted solution; +: inhibition by the 40-fold diluted solution; -: no inhibition; conditions: S. pyogenes, bead-derived peptide solution, three concentrations
# Summary of the method: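 Library peptide stock applied undiluted, 4-fold and 16-fold diluted in DMSO to S. pyogenes SSI-9 (2 × 10^5 CFU) in cation-adjusted Mueller Hinton broth with 5% laked horse blood. After 18 h at 37 °C, growth judged by visible cell precipitation.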
# [2] = system: P388 mouse leukemia cells; conditions: 92 h
# Summary of the method: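 P388 cells at 1 × 10^4 cells/mL (final) were exposed to library peptides (stocks diluted 250-fold in RPMI1640/10% FBS) for 92 h at 37 °C, 5% CO2. Viable cells were counted by WST-1/1-methoxy PMS (4 h), absorbance 415 nm, and expressed as cell viability (%).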
# [3] = H+/Na+ transport assay of bead-derived peptides (one-point); type: biochemical; parameters: key: relative activity; mean of two control wells = 1.00; conditions: bead-derived peptide solution, EYPC/EYPG LUVs;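 further: relative to parent gramicidin A activity set to 1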
# Summary of the method: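 One-point screen: peptide + pyranine-loaded LUVs, 30 min RT with vortexing, 96-well. Read-out is fluorescence intensity scaled as 100 × (Ix – I0)/(Imax – I0). Imax from Triton X-100, I0 from untreated vesicles, and the mean of the two control wells is set to 1.00.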
SMILES,antibacterial activity [1],cell viability/% [2] [%],H+/Na+ transport activity normalized against the value of 1 (1.00) [3]
CC(C)C[C@@H](NC(=O)[C@H](C)NC(=O)[C@H](NC(=O)[C@H](C)NC(=O)CNC(=O)[C@@H](NC=O)C(C)C)C(C)C)C(=O)N[C@H](C(=O)N[C@@H](C(=O)N[C@@H](Cc1c[nH]c2ccccc12)C(=O)N[C@H](CC(C)C)C(=O)N[C@@H](Cc1c[nH]c2ccccc12)C(=O)N[C@@H](C(=O)N[C@@H](Cc1c[nH]c2ccccc12)C(=O)N[C@H](CC(C)C)C(=O)N[C@@H](Cc1c[nH]c2ccccc12)C(=O)NCCO)C(C)C)C(C)C)C(C)C [compound 10261] (For-VGA[dV]A[dL]V[dV]W[dL]W[dV]W[dL]W-NHCH2CH2OH),+,46.3,1.05
CC(C)[C@H](NC=O)C(=O)NCC(=O)N[C@@H](C)C(=O)N[C@@H](C(=O)N[C@@H](C)C(=O)N[C@@H](C(=O)N[C@H](C(=O)N[C@@H](C(=O)N[C@@H](Cc1c[nH]c2ccccc12)C(=O)N[C@@H](C(=O)N[C@@H](Cc1c[nH]c2ccccc12)C(=O)N[C@@H](C(=O)N[C@@H](Cc1c[nH]c2ccccc12)C(=O)N[C@@H](C(=O)N[C@@H](Cc1c[nH]c2ccccc12)C(=O)NCCO)C(C)C)C(C)C)C(C)C)C(C)C)C(C)C)C(C)C)C(C)C [compound 10276] (For-VGA[dV]A[dV]V[dV]W[dV]W[dV]W[dV]W-NHCH2CH2OH),+,100.0,1.04
CC(C)C[C@@H](NC(=O)[C@H](C)NC(=O)CNC(=O)[C@@H](NC=O)C(C)C)C(=O)N[C@@H](C)C(=O)N[C@H](CC(C)C)C(=O)N[C@H](C(=O)N[C@H](CC(C)C)C(=O)N[C@@H](Cc1c[nH]c2ccccc12)C(=O)N[C@H](CC(C)C)C(=O)N[C@@H](Cc1c[nH]c2ccccc12)C(=O)N[C@H](CC(C)C)C(=O)N[C@@H](Cc1c[nH]c2ccccc12)C(=O)N[C@@H](C(=O)N[C@@H](Cc1c[nH]c2ccccc12)C(=O)NCCO)C(C)C)C(C)C [compound 10340] (For-VGA[dL]A[dL]V[dL]W[dL]W[dL]W[dV]W-NHCH2CH2OH),-,3.4,1.00
CC(C)C[C@@H](NC(=O)[C@H](C)NC(=O)[C@H](NC(=O)[C@H](C)NC(=O)CNC(=O)[C@@H](NC=O)C(C)C)C(C)C)C(=O)N[C@H](C(=O)N[C@@H](C(=O)N[C@@H](Cc1c[nH]c2ccccc12)C(=O)N[C@@H](C(=O)N[C@@H](Cc1c[nH]c2ccccc12)C(=O)N[C@H](CC(C)C)C(=O)N[C@@H](Cc1c[nH]c2ccccc12)C(=O)N[C@H](CC(C)C)C(=O)N[C@@H](Cc1c[nH]c2ccccc12)C(=O)NCCO)C(C)C)[C@H](C)O)C(C)C [compound 10367] (For-VGA[dV]A[dL]V[dT]W[dV]W[dL]W[dL]W-NHCH2CH2OH),-,100.0,1.00
CC(C)C[C@@H](NC(=O)[C@H](C)NC(=O)CNC(=O)[C@@H](NC=O)C(C)C)C(=O)N[C@@H](C)C(=O)N[C@@H](C(=O)N[C@H](C(=O)N[C@@H](C(=O)N[C@@H](Cc1c[nH]c2ccccc12)C(=O)N[C@@H](C(=O)N[C@@H](Cc1c[nH]c2ccccc12)C(=O)N[C@H](CC(C)C)C(=O)N[C@@H](Cc1c[nH]c2ccccc12)C(=O)N[C@@H](C(=O)N[C@@H](Cc1c[nH]c2ccccc12)C(=O)NCCO)C(C)C)C(C)C)C(C)C)C(C)C)[C@H](C)O [compound 10415] (For-VGA[dL]A[dT]V[dV]W[dV]W[dL]W[dV]W-NHCH2CH2OH),-,100.0,1.02
CC(C)C[C@@H](NC(=O)[C@H](C)NC(=O)CNC(=O)[C@@H](NC=O)C(C)C)C(=O)N[C@@H](C)C(=O)N[C@H](CC(C)C)C(=O)N[C@H](C(=O)N[C@H](CC(C)C)C(=O)N[C@@H](Cc1c[nH]c2ccccc12)C(=O)N[C@@H](C(=O)N[C@@H](Cc1c[nH]c2ccccc12)C(=O)N[C@@H](C(=O)N[C@@H](Cc1c[nH]c2ccccc12)C(=O)N[C@H](CC(C)C)C(=O)N[C@@H](Cc1c[nH]c2ccccc12)C(=O)NCCO)C(C)C)[C@H](C)O)C(C)C [compound 10442] (For-VGA[dL]A[dL]V[dL]W[dT]W[dV]W[dL]W-NHCH2CH2OH),-,100.0,1.15
CC(C)C[C@@H](NC(=O)[C@H](C)NC(=O)CNC(=O)[C@@H](NC=O)C(C)C)C(=O)N[C@@H](C)C(=O)N[C@H](CC(C)C)C(=O)N[C@H](C(=O)N[C@@H](C(=O)N[C@@H](Cc1c[nH]c2ccccc12)C(=O)N[C@@H](C(=O)N[C@@H](Cc1c[nH]c2ccccc12)C(=O)N[C@H](CC(C)C)C(=O)N[C@@H](Cc1c[nH]c2ccccc12)C(=O)N[C@@H](C(=O)N[C@@H](Cc1c[nH]c2ccccc12)C(=O)NCCO)C(C)C)C(C)C)C(C)C)C(C)C [compound 10456] (For-VGA[dL]A[dL]V[dV]W[dV]W[dL]W[dV]W-NHCH2CH2OH),+,11.8,1.13
CC(C)C[C@@H](NC(=O)[C@H](C)NC(=O)[C@H](NC(=O)[C@H](C)NC(=O)CNC(=O)[C@@H](NC=O)C(C)C)[C@H](C)O)C(=O)N[C@H](C(=O)N[C@H](CC(C)C)C(=O)N[C@@H](Cc1c[nH]c2ccccc12)C(=O)N[C@H](CC(C)C)C(=O)N[C@@H](Cc1c[nH]c2ccccc12)C(=O)N[C@H](CC(C)C)C(=O)N[C@@H](Cc1c[nH]c2ccccc12)C(=O)N[C@H](CC(C)C)C(=O)N[C@@H](Cc1c[nH]c2ccccc12)C(=O)NCCO)C(C)C [compound 10497] (For-VGA[dT]A[dL]V[dL]W[dL]W[dL]W[dL]W-NHCH2CH2OH),-,100.0,1.24
CC(C)C[C@@H](NC(=O)[C@H](C)NC(=O)CNC(=O)[C@@H](NC=O)C(C)C)C(=O)N[C@@H](C)C(=O)N[C@H](CC(C)C)C(=O)N[C@H](C(=O)N[C@H](CC(C)C)C(=O)N[C@@H](Cc1c[nH]c2ccccc12)C(=O)N[C@@H](C(=O)N[C@@H](Cc1c[nH]c2ccccc12)C(=O)N[C@H](CC(C)C)C(=O)N[C@@H](Cc1c[nH]c2ccccc12)C(=O)N[C@@H](C(=O)N[C@@H](Cc1c[nH]c2ccccc12)C(=O)NCCO)C(C)C)[C@H](C)O)C(C)C [compound 10499] (For-VGA[dL]A[dL]V[dL]W[dT]W[dL]W[dV]W-NHCH2CH2OH),-,100.0,1.14
CC(C)C[C@@H](NC(=O)[C@H](Cc1c[nH]c2ccccc12)NC(=O)[C@H](NC(=O)[C@H](Cc1c[nH]c2ccccc12)NC(=O)[C@H](NC(=O)[C@H](Cc1c[nH]c2ccccc12)NC(=O)[C@@H](CC(C)C)NC(=O)[C@@H](NC(=O)[C@H](NC(=O)[C@H](C)NC(=O)[C@H](NC(=O)[C@H](C)NC(=O)CNC(=O)[C@@H](NC=O)C(C)C)[C@H](C)O)C(C)C)C(C)C)C(C)C)C(C)C)C(=O)N[C@@H](Cc1c[nH]c2ccccc12)C(=O)NCCO [compound 10500] (For-VGA[dT]A[dV]V[dL]W[dV]W[dV]W[dL]W-NHCH2CH2OH),-,100.0,1.14
CC(C)C[C@@H](NC(=O)[C@H](Cc1c[nH]c2ccccc12)NC(=O)[C@H](NC(=O)[C@H](Cc1c[nH]c2ccccc12)NC(=O)[C@@H](CC(C)C)NC(=O)[C@H](Cc1c[nH]c2ccccc12)NC(=O)[C@@H](CC(C)C)NC(=O)[C@@H](NC(=O)[C@H](NC(=O)[C@H](C)NC(=O)[C@H](NC(=O)[C@H](C)NC(=O)CNC(=O)[C@@H](NC=O)C(C)C)C(C)C)C(C)C)C(C)C)[C@H](C)O)C(=O)N[C@@H](Cc1c[nH]c2ccccc12)C(=O)NCCO [compound 10516] (For-VGA[dV]A[dV]V[dL]W[dL]W[dT]W[dL]W-NHCH2CH2OH),-,100.0,1.10
CC(C)C[C@@H](NC(=O)[C@H](C)NC(=O)[C@H](NC(=O)[C@H](C)NC(=O)CNC(=O)[C@@H](NC=O)C(C)C)C(C)C)C(=O)N[C@H](C(=O)N[C@@H](C(=O)N[C@@H](Cc1c[nH]c2ccccc12)C(=O)N[C@@H](C(=O)N[C@@H](Cc1c[nH]c2ccccc12)C(=O)N[C@H](CC(C)C)C(=O)N[C@@H](Cc1c[nH]c2ccccc12)C(=O)N[C@H](CC(C)C)C(=O)N[C@@H](Cc1c[nH]c2ccccc12)C(=O)NCCO)[C@H](C)O)[C@H](C)O)C(C)C [compound 10517] (For-VGA[dV]A[dL]V[dT]W[dT]W[dL]W[dL]W-NHCH2CH2OH),-,100.0,1.05
CC(C)C[C@@H](NC(=O)[C@H](C)NC(=O)CNC(=O)[C@@H](NC=O)C(C)C)C(=O)N[C@@H](C)C(=O)N[C@H](CC(C)C)C(=O)N[C@H](C(=O)N[C@@H](C(=O)N[C@@H](Cc1c[nH]c2ccccc12)C(=O)N[C@@H](C(=O)N[C@@H](Cc1c[nH]c2ccccc12)C(=O)N[C@@H](C(=O)N[C@@H](Cc1c[nH]c2ccccc12)C(=O)N[C@@H](C(=O)N[C@@H](Cc1c[nH]c2ccccc12)C(=O)NCCO)C(C)C)C(C)C)C(C)C)C(C)C)C(C)C [compound 10536] (For-VGA[dL]A[dL]V[dV]W[dV]W[dV]W[dV]W-NHCH2CH2OH),+,100.0,1.21
